# Patent US10344034B2, “Pyrazolopyrimidone or Pyrrolotriazone derivatives, method of preparing same, and pharmaceutical applications thereof” (Shanghai Hengrui Pharmaceutical Co., Ltd., priority 2013, dated 2019)
# What was measured:
# human GnRHr = human GnRHr (Homo sapiens (Human), UniProt P30968); assay: Human GnRHr (GnRH receptor) activity assay, Fluo-4 calcium signal in Human GnRHr/CHO stably transfected cell lines; assay type: cell-based; details: Human GnRHr/CHO cells, GnRH polypeptide stimulant
# Experimental: Test Example 1. Human GnRHr (GnRH Receptor) Activity Assay of the Present Compounds.
# In vitro GnRHr protein activity was tested by the following methods.
# This assay was used to determine the inhibition effect of the present compound on the activity of human GnRHr protein expressed by Human GnRHr/CHO stably transfected cell lines.
# A mammalian expression vector containing the human GnRHr gene was transferred into CHO cells by adding Lipofectamine® LTX reagent containing Plus™. Antibiotics were added the next day for screening to pick out the monoclonal cell lines.
# (§1) The Human GnRHr/CHO stably transfected cell lines were inoculated in 96-well plates with an inoculation density of 25,000 cells/well. The culture medium was removed the next day, and loading buffer containing Fluo-4 dye was added to the plate (100 μL/well) and incubated for 30 minutes at 37° C. The plate was moved to room temperature and equilibrated for 10 minutes. Each compound was diluted with DMSO to seven concentration gradients of 100 μM, 10 μM, 1 μM, 0.1 μM, 0.01 μM, 0.001 μM, 0.0001 μM. Then, 1 μl of each gradient was added to each well and incubated for 10 minutes at room temperature. After automated addition of 50 μL of GnRH polypeptide stimulant solution, the value was immediately detected at 494/516 nM by a microplate reader (flexstation 3). IC50 values of the compounds were calculated by software from different fluorescence signals at various corresponding concentrations.
# The inhibitory activity of the present compounds on human GnRHr was determined by the above assay, and IC50 values are shown in Table 1.
# [1] = Rat pharmacokinetics assay; assay type: in vivo, Sprague-Dawley (SD) rats; details: both sexes, Sprague-Dawley, plasma, oral 10 mg/kg; for Vd/F: read-out: Apparent volume of distribution Vz/F; for AUC: read-out: Area under curve AUC; for CL/F: read-out: Clearance rate CL/F; for half-life: read-out: Half-life T1/2 (converted); for Cmax: read-out: Plasma concentration Cmax; for MRT: read-out: Residence time MRT
# Experimental: Test Example 4. Rat pharmacokinetics assay of the compounds of Example 2, Example 3, Example 5, Example 9, Example 10, Example 11, and Example 13 of the present invention.
# Sprague-Dawley (SD) rats were used as test animals. The plasma concentrations at various times were determined by LC/MS/MS after intragastric administration of compounds of Example 2, Example 3, Example 5, Example 9, Example 10, Example 11, and Example 13, and intravenous administration of the compound of Example 11 to the rats. The pharmacokinetic behavior of the present compounds in rats was studied, and the pharmacokinetic features were evaluated.
# Thirty-two (32) healthy adult SD rats (half female and half male) were evenly designated into 8 groups (4 for each group). The animals were purchased from Shanghai Super B&K Laboratory Animal Corp. Ltd (laboratory animal production Certificate No. SCXK (HU)2008-0016).
# An appropriate amount of sample was weighed, and added with 0.5% CMC-Na to form a 1 mg/ml suspension upon ultrasonic treatment.
# Appropriate amounts of drugs were weighed, and dissolved with 0.5 ml DMSO and 0.5 ml of Tween 80. Saline solution was added to the final volume.
# Thirty-two (32) SD rats (half female and half male) were evenly designated into 8 groups (4 for each group), and administered by oral gavage or intravenous injection (i.v.) (oral gavage at a dosage of 10 mg/kg or 30 mg/kg, and i.v. at a dosage of 5.0 mg/kg), respectively, at a volume of 10 ml/kg after fasting overnight.
# 0.1 ml of blood was sampled before, and 0.5, 1, 2, 4, 6, 8, 11, and 24 hours after administration, collected in a heparinized test tube, and centrifuged at 3500 rpm for 10 minutes to separate the plasma, which was stored at −20° C. The animals were allowed access to feed 2 hours after administration.
# The content of the test compound in the plasma of rats after administration of the compound by oral gavage was determined by LC/MS/MS.
# rabbit GnRHr = rabbit GnRHr (Oryctolagus cuniculus, UniProt Q5U7L3); assay: Rabbit GnRHr inhibitory activity assay, rabbit GnRHr/CHO stably transfected cell lines; assay type: cell-based; details: rabbit GnRHr/CHO cells, GnRH polypeptide stimulant, Fluo-4
# Experimental: Test Example 3. Rabbit GnRHr Inhibitory Activity Assay of the Present Compounds
# This assay was used to determine the inhibition effect of the present compounds on the activity of rabbit GnRHr protein expressed by rabbit GnRHr/CHO stably transfected cell lines.
# A mammalian expression vector containing the rabbit GnRHr gene was transferred into CHO cells by adding Lipofectamine® LTX reagent containing Plus™. Antibiotics were added the next day for screening to pick out the monoclonal cell lines.
# as §1, with “rabbit” for “Human”, “494/516n M” for “494/516 nM”
# The inhibitory activity of the present compounds on rabbit GnRHr was determined by the above assay, and IC50 values are shown in Table 1.
# Sequence of human GnRHr (P30968 whole entry): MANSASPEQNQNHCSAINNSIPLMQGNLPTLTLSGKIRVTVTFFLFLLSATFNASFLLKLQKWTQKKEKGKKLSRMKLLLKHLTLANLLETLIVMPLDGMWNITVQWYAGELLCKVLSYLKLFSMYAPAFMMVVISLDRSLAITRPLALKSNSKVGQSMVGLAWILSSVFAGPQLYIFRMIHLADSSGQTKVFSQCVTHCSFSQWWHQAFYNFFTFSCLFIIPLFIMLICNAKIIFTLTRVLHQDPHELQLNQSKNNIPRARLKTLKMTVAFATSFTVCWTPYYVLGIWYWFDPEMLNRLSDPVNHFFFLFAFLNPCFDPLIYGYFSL
# Sequence of rabbit GnRHr (Q5U7L3 1-328): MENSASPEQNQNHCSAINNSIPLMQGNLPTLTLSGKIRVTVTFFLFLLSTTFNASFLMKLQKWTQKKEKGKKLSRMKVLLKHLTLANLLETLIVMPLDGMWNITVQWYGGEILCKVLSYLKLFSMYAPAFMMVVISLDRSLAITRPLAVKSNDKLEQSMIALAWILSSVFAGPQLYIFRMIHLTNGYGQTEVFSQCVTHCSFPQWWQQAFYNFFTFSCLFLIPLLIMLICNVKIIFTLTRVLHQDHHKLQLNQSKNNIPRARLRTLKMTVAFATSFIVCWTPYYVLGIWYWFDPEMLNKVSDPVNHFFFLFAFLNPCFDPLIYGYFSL
SMILES,IC50 (human GnRHr),Vd/F [1],AUC [1],CL/F [1],half-life [1],Cmax [1],MRT [1],IC50 (rabbit GnRHr)
"CNC(=O)Nc1ccc(-n2nc3c(c2CN(C)C)c(=O)n(-c2ccc(OC)nn2)c(=O)n3Cc2c(F)cccc2C(F)(F)F)cc1 [Example 12, 1-(4-(3-((dimethylamino)methyl)-7-(2-fluoro-6-(trifluoromethyl)benzyl)-5-(6-methoxypyridazin-3-yl)-4,6-dioxo-4,5,6,7-tetrahydro-2H-pyrazolo[3,4-d]pyrimidin-2-yl)phenyl)-3-methylurea]",2.24 nM,–,–,–,–,–,–,–
"CNC(=O)Nc1ccc(-c2cn3c(c2CN(C)C)c(=O)n(-c2cccc(OC)c2F)c(=O)n3Cc2c(F)cccc2F)cc1 [Example 14, 1-(4-(1-(2,6-difluorobenzyl)-5-((dimethylamino)methyl)-3-(2-fluoro-3-methoxyphenyl)-2,4-dioxo-1,2,3,4-tetrahydropyrrolo[2,1-f][1,2,4]triazin-6-yl)phenyl)-3-methylurea]",0.11 nM,–,–,–,–,–,–,–
"CCNC(=O)Nc1ccc(-n2nc3c(c2CN(C)C)c(=O)n(-c2ccc(OC)nn2)c(=O)n3Cc2c(F)cccc2F)cc1 [Example 10, 1-(4-(7-(2,6-difluorobenzyl)-3-((dimethylamino)methyl)-5-(6-methoxypyridazin-3-yl)-4,6-dioxo-4,5,6,7-tetrahydro-2H-pyrazolo[3,4-d]pyrimidin-2-yl)phenyl)-3-ethylurea]",0.66 nM,30.3 ± 14.4 L/kg,1240 ± 593 ng·h/mL,168 ± 95 mL/min/kg,2.29 ± 0.84 h,598 ± 431 ng/mL,2.96 ± 0.17 h,–
"CNC(=O)Nc1ccc(-n2nc3c(c2CN(C)C)c(=O)n(-c2cccc(OC)c2F)c(=O)n3Cc2c(F)cccc2C(F)(F)F)cc1 [Example 8, 1-(4-(3-((dimethylamino)methyl)-5-(2-fluoro-3-methoxyphenyl)-7-(2-fluoro-6-(trifluoromethyl)benzyl)-4,6-dioxo-4,5,6,7-tetrahydro-2H-pyrazolo[3,4-d]pyrimidin-2-yl)phenyl)-3-methylurea]",0.6 nM,–,–,–,–,–,–,0.27 nM
"CNC(=O)Nc1ccc(-n2nc3c(c2CN(C)C)c(=O)n(-c2ccc(OC)nn2)c(=O)n3Cc2c(F)cccc2F)cc1 [Example 9, 1-(4-(7-(2,6-difluorobenzyl)-3-((dimethylamino)methyl)-5-(6-methoxypyridazin-3-yl)-4,6-dioxo-4,5,6,7-tetrahydro-2H-pyrazolo[3,4-d]pyrimidin-2-yl)phenyl)-3-methylurea]",0.42 nM,72 ± 25 L/kg,628 ± 369 ng·h/mL,332 ± 159 mL/min/kg,2.91 ± 1.64 h,146 ± 59 ng/mL,4.67 ± 2.22 h,0.24 nM
"CNC(=O)Nc1ccc(-c2cn3c(c2CN(C)C)c(=O)n(-c2ccc(OC)nn2)c(=O)n3Cc2c(F)cccc2F)cc1 [Example 16, 1-(4-(1-(2,6-difluorobenzyl)-5-((dimethylamino)methyl)-3-(6-methoxypyridazin-3-yl)-2,4-dioxo-1,2,3,4-tetrahydropyrrolo[2,1-f][1,2,4]triazin-6-yl)phenyl)-3-methylurea]",2.32 nM,–,–,–,–,–,–,–
"CCNC(=O)Nc1ccc(-n2nc3c(c2CN(C)C)c(=O)n(-c2cccc(OC)c2F)c(=O)n3Cc2c(F)cccc2C(F)(F)F)cc1 [Example 6, 1-(4-(3-((dimethylamino)methyl)-5-(2-fluoro-3-methoxyphenyl)-7-(2-fluoro-6-(trifluoromethyl)benzyl)-4,6-dioxo-4,5,6,7-tetrahydro-2H-pyrazolo[3,4-d]pyrimidin-2-yl)phenyl)-3-ethylurea]",0.96 nM,–,–,–,–,–,–,–
"CCNC(=O)Nc1ccc(-c2cn3c(c2CN(C)C)c(=O)n(-c2cccc(OC)c2F)c(=O)n3Cc2c(F)cccc2F)cc1 [Example 13, 1-(4-(1-(2,6-difluorobenzyl)-5-((dimethylamino)methyl)-3-(2-fluoro-3-methoxyphenyl)-2,4-dioxo-1,2,3,4-tetrahydropyrrolo[2,1-f][1,2,4]triazin-6-yl)phenyl)-3-ethylurea]",0.92 nM,231 ± 234 L/kg,389 ± 298 ng·h/mL,915 ± 1050 mL/min/kg,3.31 ± 0.57 h,103 ± 64 ng/mL,4.48 ± 0.7 h,–
"CONC(=O)Nc1ccc(-c2cn3c(c2CN(C)C)c(=O)n(-c2cccc(OC)c2F)c(=O)n3Cc2c(F)cccc2F)cc1 [Example 15, 1-(4-(1-(2,6-difluorobenzyl)-5-((dimethylamino)methyl)-3-(2-fluoro-3-methoxyphenyl)-2,4-dioxo-1,2,3,4-tetrahydropyrrolo[2,1-f][1,2,4]triazin-6-yl)phenyl)-3-methoxyurea]",0.43 nM,–,–,–,–,–,–,–

# The next lines start with results.
IC50 (human GnRHr),Vd/F [1],AUC [1],CL/F [1],half-life [1],Cmax [1],MRT [1],SMILES,IC50 (rabbit GnRHr)
0.49 nM,–,–,–,–,–,–,"CONC(=O)Nc1ccc(-n2nc3c(c2CN(C)C)c(=O)n(-c2cccc(OC)c2F)c(=O)n3Cc2c(F)cccc2C(F)(F)F)cc1 [Example 7, 1-(4-(3-((dimethylamino)methyl)-5-(2-fluoro-3-methoxyphenyl)-7-(2-fluoro-6-(trifluoromethyl)benzyl)-4,6-dioxo-4,5,6,7-tetrahydro-2H-pyrazolo[3,4-d]pyrimidin-2-yl)phenyl)-3-methoxyurea]",–
1.46 nM,14.4 ± 10.5 L/kg,1550 ± 650 ng·h/mL,121 ± 44 mL/min/kg,1.24 ± 0.54 h,746 ± 493 ng/mL,2.02 ± 0.67 h,"CONC(=O)Nc1ccc(-n2nc3c(c2CN(C)C)c(=O)n(-c2cccc(OC)c2F)c(=O)n3Cc2c(F)cccc2F)cc1 [Example 2, 1-(4-(7-(2,6-difluorobenzyl)-3-((dimethylamino)methyl)-5-(2-fluoro-3-methoxyphenyl)-4,6-dioxo-4,5,6,7-tetrahydro-2H-pyrazolo[3,4-d]pyrimidin-2-yl)phenyl)-3-methoxyurea]",–
0.66 nM,46.8 ± 39.2 L/kg,1290 ± 1030 ng·h/mL,247 ± 198 mL/min/kg,2.32 ± 0.65 h,690 ± 660 ng/mL,2.47 ± 0.75 h,"CNC(=O)Nc1ccc(-n2nc3c(c2CN(C)C)c(=O)n(-c2cccc(OC)c2F)c(=O)n3Cc2c(F)cccc2F)cc1 [Example 5, 1-(4-(7-(2,6-difluorobenzyl)-3-((dimethylamino)methyl)-5-(2-fluoro-3-methoxyphenyl)-4,6-dioxo-4,5,6,7-tetrahydro-2H-pyrazolo[3,4-d]pyrimidin-2-yl)phenyl)-3-methylurea]",–
0.9 nM,96.2 ± 42.2 L/kg,1070 ± 472 ng·h/mL,181 ± 79 mL/min/kg,6.17 ± 0.79 h,237 ± 158 ng/mL,6.42 ± 1.39 h,"CCNC(=O)Nc1ccc(-n2nc3c(c2CN(C)C)c(=O)n(-c2cccc(OC)c2F)c(=O)n3Cc2c(F)cccc2F)cc1 [Example 3, 1-(4-(7-(2,6-difluorobenzyl)-3-((dimethylamino)methyl)-5-(2-fluoro-3-methoxyphenyl)-4,6-dioxo-4,5,6,7-tetrahydro-2H-pyrazolo[3,4-d]pyrimidin-2-yl)phenyl)-3-ethylurea]",–
